Laboratory results from patent US10800792B2, “Inhibitors of Bruton's tyrosine kinase and method of their use” (JANSSEN PHARMACEUTICA NV, priority 2015, dated 2020).

target: unphosphorylated-BTK kinase domain (UP-BTK), GST-tagged human BTK (389-659aa) (Homo sapiens (Human), UniProt Q06187); test: BTK kinase Lanthascreen binding assay; conditions: Lanthascreen tracer competition, 60 minutes incubation; pIC50 = negative log of the IC50 in molar
Procedure, shortened: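 Tracer-displacement binding assay against the non-phosphorylated enzyme, read by Lanthascreen. Reported: pIC50.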

Chain of unphosphorylated-BTK kinase domain (UP-BTK), GST-tagged human BTK (389-659aa) (Q06187 389-659): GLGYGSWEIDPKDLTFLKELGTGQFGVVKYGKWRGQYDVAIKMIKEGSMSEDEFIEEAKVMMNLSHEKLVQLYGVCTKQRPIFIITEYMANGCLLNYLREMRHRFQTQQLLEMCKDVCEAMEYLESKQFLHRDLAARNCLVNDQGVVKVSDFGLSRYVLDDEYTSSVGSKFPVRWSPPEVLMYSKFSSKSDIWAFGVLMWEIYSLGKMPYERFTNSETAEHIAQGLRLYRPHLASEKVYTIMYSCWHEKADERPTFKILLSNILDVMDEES

Row | Structure (SMILES) | BTK_I_binding pIC50
1 | C=CC(=O)N1CCC[C@@H](NC(=O)c2sc3nccc4c3c2NC(=O)N4c2cc(-c3ccccc3)cnn2)C1 [Example 751, (R)—N-(1-Acryloylpiperidin-3-yl)-4-oxo-5-(5-phenylpyridazin-3-yl)-4,5-dihydro-3H-1-thia-3,5,8-triazaacenaphthylene-2-carboxamide] | 6.7
2 | C=CC(=O)N1CCC(C(=O)Nc2sc3nccc4c3c2NC(=O)N4c2ccc(Oc3ccccc3)cc2C)CC1 [Example 820, 1-Acryloyl-N-(5-(2-methyl-4-phenoxyphenyl)-4-oxo-4,5-dihydro-3H-1-thia-3,5,8-triazaacenaphthylen-2-yl)piperidine-4-carboxamide] | 5.9
3 | O=C(N[C@@H]1CCCNC1)c1sc2nccc3c2c1NC(=O)N3c1ccnc(C2CCCC2)c1 [Example 720, (R)-5-(2-Cyclopentylpyridin-4-yl)-4-oxo-N-(piperidin-3-yl)-4,5-dihydro-3H-1-thia-3,5,8-triazaacenaphthylene-2-carboxamide] | 6.2
4 | CN(C)C/C=C/C(=O)N1CC[C@@H](NC(=O)c2sc3nccc4c3c2NC(=O)N4c2ccc(Oc3ccccc3)c(Cl)c2)C1 [Example 703, (R,E)-5-(3-Chloro-4-phenoxyphenyl)-N-(1-(4-(dimethylamino)but-2-enoyl)pyrrolidin-3-yl)-4-oxo-4,5-dihydro-3H-1-thia-3,5,8-triazaacenaphthylene-2-carboxamide] | 7.8
5 | Cc1cc(Oc2ccccc2)ccc1N1C(=O)Nc2c(C(=O)NC3CCN(C)CC3)sc3nccc1c23 [Example 858, 5-(2-Methyl-4-phenoxyphenyl)-N-(1-methylpiperidin-4-yl)-4-oxo-4,5-dihydro-3H-1-thia-3,5,8-triazaacenaphthylene-2-carboxamide] | 7.5
6 | CCC(=O)N1CCC[C@@H](NC(=O)c2sc3nccc4c3c2NC(=O)N4c2ccc(Oc3ccccc3)cc2C)C1 [Example 871, (R)-5-(2-Methyl-4-phenoxyphenyl)-4-oxo-N-(1-propionylpiperidin-3-yl)-4,5-dihydro-3H-1-thia-3,5,8-triazaacenaphthylene-2-carboxamide] | 7.3
7 | CC(=O)N1CCC[C@H]1/C=C(\C#N)C(=O)N1CCC[C@@H](NC(=O)c2sc3nccc4c3c2NC(=O)N4c2ccc(Oc3ccccc3)cc2C)C1 [Example 681, N—((R)-1-((*E)-3-((S)-1-Acetylpyrrolidin-2-yl)-2-cyanoacryloyl)piperidin-3-yl)-5-(2-methyl-4-phenoxyphenyl)-4-oxo-4,5-dihydro-3H-1-thia-3,5,8-triazaacenaphthylene-2-carboxamide] | 7.7

same assay, conditions: pIC50 = negative log of the IC50 in molar; 60 minutes incubation, 50 nM Tracer 236

Row | Structure (SMILES) | BTK_I_binding pIC50
8 | Cc1cc(Oc2c(F)cccc2F)ccc1N1C(=O)Nc2c(C(=O)N[C@@H]3CCCN(C)C3)sc3nccc1c23 [Example 52, (R)-5-(4-(2,6-Difluorophenoxy)-2-methylphenyl)-N-(1-methylpiperidin-3-yl)-4-oxo-4,5-dihydro-3H-1-thia-3,5,8-triazaacenaphthylene-2-carboxamide] | 7.0
9 | CNC(C)(C)/C=C(\C#N)C(=O)N1CCC[C@@H](NC(=O)c2sc3nccc4c3c2NC(=O)N4c2ccc(Oc3ccccc3)cc2C)C1 [Example 238, (R,E)-N-(1-(2-Cyano-4-methyl-4-(methylamino)pent-2-enoyl)piperidin-3-yl)-5-(2-methyl-4-phenoxyphenyl)-4-oxo-4,5-dihydro-3H-1-thia-3,5,8-triazaacenaphthylene-2-carboxamide] | 6.8
10 | Cc1c(N2C(=O)Nc3c(C(=O)N[C@@H]4CCCN(C(=O)CCS(C)(=O)=O)C4)sc4nccc2c34)ccc(Oc2ccccc2)c1F [Example 113, (R)-5-(3-Fluoro-2-methyl-4-phenoxyphenyl)-N-(1-(3-(methylsulfonyl)propanoyl)piperidin-3-yl)-4-oxo-4,5-dihydro-3H-1-thia-3,5,8-triazaacenaphthylene-2-carboxamide] | 7.3

same assay, conditions: unphosphorylated-BTK kinase domain, 50 nM Tracer 236, 60 minutes; pIC50 = negative log of the IC50 in molar

Row | Structure (SMILES) | BTK_I_binding pIC50
11 | C=CC(=O)N1CCC[C@@H](NC(=O)c2sc3nccc4c3c2NC(=O)N4c2ccc3c(c2)OC(F)(F)O3)C1 [Example 525, (R)—N-(1-Acryloylpiperidin-3-yl)-5-(2,2-difluorobenzo[d][1,3]dioxol-5-yl)-4-oxo-4,5-dihydro-3H-1-thia-3,5,8-triazaacenaphthylene-2-carboxamide] | 7.5
12 | CN(C)C/C=C/C(=O)N1CCC[C@@H](NC(=O)c2sc3nccc4c3c2NC(=O)N4c2cccc(-c3ccccc3)c2)C1 [Example 573, (R,E)-5-([1,1′-Biphenyl]-3-yl)-N-(1-(4-(dimethylamino)but-2-enoyl)piperidin-3-yl)-4-oxo-4,5-dihydro-3H-1-thia-3,5,8-triazaacenaphthylene-2-carboxamide] | 6.6
13 | C=CC(=O)N1CCC[C@@H](NC(=O)c2sc3nccc4c3c2NC(=O)N4c2cccc(-c3cccc(F)c3)c2)C1 [Example 500, (R)—N-(1-Acryloylpiperidin-3-yl)-5-(3′-fluoro-[1,1′-biphenyl]-3-yl)-4-oxo-4,5-dihydro-3H-1-thia-3,5,8-triazaacenaphthylene-2-carboxamide] | 8.1
14 | CN(C)c1cccc(N2C(=O)Nc3c(C(=O)N[C@@H]4CCCNC4)sc4nccc2c34)c1 [Example 356, (R)-5-(3-(Dimethylamino)phenyl)-4-oxo-N-(piperidin-3-yl)-4,5-dihydro-3H-1-thia-3,5,8-triazaacenaphthylene-2-carboxamide] | <5
15 | Cc1cc(Oc2ccccc2)ccc1N1C(=O)Nc2c(C(=O)N[C@H]3CCOC3)sc3nccc1c23 (single isomer, unassigned) [Example 323, (S)-5-(*R)-(2-Methyl-4-phenoxyphenyl)-4-oxo-N-(tetrahydrofuran-3-yl)-4,5-dihydro-3H-1-thia-3,5,8-triazaacenaphthylene-2-carboxamide] | 5.7
16 | Cc1cc(Oc2ccccc2)ccc1N1C(=O)Nc2c(C(=O)N(C)[C@@H]3CCN(C)C3)sc3nccc1c23 [Example 338, (R)—N-Methyl-5-(2-methyl-4-phenoxyphenyl)-N-(1-methylpyrrolidin-3-yl)-4-oxo-4,5-dihydro-3H-1-thia-3,5,8-triazaacenaphthylene-2-carboxamide] | 5.4

same assay, conditions: unphosphorylated-BTK kinase domain, 50 nM Tracer 236, 60 minutes; pIC50 = negative log of the IC50 in molar; read-out: BTK_I_binding pIC50 (converted)

Row | Structure (SMILES) | IC50
17 | [2H]c1c([2H])c([2H])c(Oc2ccc(N3C(=O)Nc4c(C(=O)N[C@@H]5CCCN(C(=O)/C(C#N)=C/C6CC6)C5)sc5nccc3c45)c(C)c2)c([2H])c1[2H] [Example 378, (R,E)-N-(1-(2-Cyano-3-cyclopropylacryloyl)piperidin-3-yl)-5-(2-methyl-4-(2,3,4,5,6-pentadeuteriophenoxy)phenyl)-4-oxo-4,5-dihydro-3H-1-thia-3,5,8-triazaacenaphthylene-2-carboxamide] | 31.6 nM

same assay, conditions: unphosphorylated-BTK kinase domain, 60 minutes incubation, 50 nM Tracer 236; pIC50 = negative log of the IC50 in molar

Row | Structure (SMILES) | BTK_I_binding pIC50
18 | Cc1cc(Oc2ccccc2)ccc1N1C(=O)Nc2c(C(=O)NC3CCN(C(=O)/C(C#N)=C/C(C)(C)C)CC3)sc3nccc1c23 [Example 921, (E)-N-(1-(2-Cyano-4,4-dimethylpent-2-enoyl)piperidin-4-yl)-5-(2-methyl-4-phenoxyphenyl)-4-oxo-4,5-dihydro-3H-1-thia-3,5,8-triazaacenaphthylene-2-carboxamide] | 6.3
